This is an account of results in patent US7704995B2 (Exelixis, Inc., priority 2003, dated 2010).

The structures appear in SMILES notation.

This test deals with T1, Chk1 (Homo sapiens, UniProt O14757).
T1 construct: purchased Upstate Biotechnology
T1 sequence (O14757 1-476): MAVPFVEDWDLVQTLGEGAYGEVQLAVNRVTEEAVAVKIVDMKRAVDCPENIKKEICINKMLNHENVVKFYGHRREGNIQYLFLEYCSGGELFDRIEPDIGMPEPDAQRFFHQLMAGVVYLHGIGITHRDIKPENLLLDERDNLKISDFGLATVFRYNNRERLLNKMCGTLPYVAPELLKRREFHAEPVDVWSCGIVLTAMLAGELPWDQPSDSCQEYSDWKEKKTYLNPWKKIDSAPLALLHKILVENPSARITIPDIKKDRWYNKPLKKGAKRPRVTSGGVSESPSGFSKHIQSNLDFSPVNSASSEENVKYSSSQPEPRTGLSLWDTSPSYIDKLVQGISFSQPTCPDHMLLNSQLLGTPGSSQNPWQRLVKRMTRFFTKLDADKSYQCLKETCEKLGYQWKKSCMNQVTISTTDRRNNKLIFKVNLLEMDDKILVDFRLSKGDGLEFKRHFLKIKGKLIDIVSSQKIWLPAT
The test is described as follows: Chk1 kinase assay: incorporation of γ-33P ATP into immobilized myelin basic protein. The test is classed as biochemical. To be noted: Table 11, Chk1 only; class symbols A-D; read-out: Chk1 IC50. In short, it runs like this: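 Read-out is scintillation counting of 33P incorporated into plate-bound myelin basic protein. Chk1 runs at 10 nM enzyme with 10 μM ATP, Chk2 at 20 nM with 30 μM ATP, each for 1 hour at room temperature. Duplicate points; IC50 taken as 50% activity reduction, Ki computed from IC50.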
Turning to `Nc1ncc(-c2cccc(C(=O)NCc3ccccc3OC(F)(F)F)c2)nc1C(=O)N[C@H]1CCCNC1` [Example 846, 3-amino-N-[(3S)-piperidin-3-yl]-6-(3-{[({2-[(trifluoromethyl)oxy]phenyl}methyl)amino]carbonyl}phenyl)pyrazine-2-carboxamide], the IC50 (commonly the concentration needed to halve the response being measured) is < 50 nM.

For `Nc1ncc(-c2cccc(C(=O)NCc3ccccc3-c3ccccc3)c2)nc1C(=O)N[C@H]1CCCNC1` [Example 847, 3-amino-6-(3-{[(biphenyl-2-ylmethyl)amino]carbonyl}phenyl)-N-[(3S)-piperidin-3-yl]pyrazine-2-carboxamide], the IC50 is < 50 nM.

On to `Nc1ncc(-c2cccc(C(=O)NCc3ccc(F)cc3F)c2)nc1C(=O)N[C@H]1CCCNC1` [Example 848, 3-amino-6-[3-({[(2,4-difluorophenyl)methyl]amino}carbonyl)phenyl]-N-[(3S)-piperidin-3-yl]pyrazine-2-carboxamide], for which the IC50 is < 50 nM.

Consider `Nc1ncc(-c2cccc(C(=O)NCc3ccc(Cl)cc3F)c2)nc1C(=O)N[C@H]1CCCNC1` [Example 849, 3-amino-6-[3-({[(4-chloro-2-fluorophenyl)methyl]amino}carbonyl)phenyl]-N-[(3S)-piperidin-3-yl]pyrazine-2-carboxamide], for which the IC50 was < 50 nM.

Turning to `Nc1ncc(-c2cccc(C(=O)NCc3ccc(F)c(C(F)(F)F)c3)c2)nc1C(=O)N[C@H]1CCCNC1` [Example 850, 3-amino-6-{3-[({[4-fluoro-3-(trifluoromethyl)phenyl]methyl}amino)carbonyl]phenyl}-N-[(3S)-piperidin-3-yl]pyrazine-2-carboxamide], the IC50 was < 50 nM.

On to `Nc1ncc(-c2cccc(C(=O)NCc3ccc4ccccc4c3)c2)nc1C(=O)N[C@H]1CCCNC1` [Example 851, 3-amino-6-(3-{[(naphthalen-2-ylmethyl)amino]carbonyl}phenyl)-N-[(3S)-piperidin-3-yl]pyrazine-2-carboxamide], for which the IC50 is < 50 nM.

As to `CN(C)c1ccc(CNC(=O)c2cccc(-c3cnc(N)c(C(=O)N[C@H]4CCCNC4)n3)c2)cc1` [Example 852, 3-amino-6-{3-[({[4-(dimethylamino)phenyl]methyl}amino)carbonyl]phenyl}-N-[(3S)-piperidin-3-yl]pyrazine-2-carboxamide], the IC50 was < 50 nM.

Turning to `Nc1ncc(-c2cccc(C(=O)NCc3ccc4c(c3)OCO4)c2)nc1C(=O)N[C@H]1CCCNC1` [Example 853, 3-amino-6-(3-{[(1,3-benzodioxol-5-ylmethyl)amino]carbonyl}phenyl)-N-[(3S)-piperidin-3-yl]pyrazine-2-carboxamide], the half-inhibitory concentration (IC50) is < 50 nM.

Take `COc1ccccc1CNC(=O)c1cccc(-c2cnc(N)c(C(=O)N[C@H]3CCCNC3)n2)c1` [Example 855, 3-amino-6-{3-[({[2-(methyloxy)phenyl]methyl}amino)carbonyl]phenyl}-N-[(3S)-piperidin-3-yl]pyrazine-2-carboxamide]: the IC50 is < 50 nM.

With `COc1ccc(CNC(=O)c2cccc(-c3cnc(N)c(C(=O)N[C@H]4CCCNC4)n3)c2)c(OC)c1` [Example 856, 3-amino-6-{3-[({[2,4-bis(methyloxy)phenyl]methyl}amino)carbonyl]phenyl}-N-[(3S)-piperidin-3-yl]pyrazine-2-carboxamide], the IC50 was < 50 nM.

Turning to `Cc1cc(Cl)ccc1CNC(=O)c1cccc(-c2cnc(N)c(C(=O)N[C@H]3CCCNC3)n2)c1` [Example 857, 3-amino-6-[3-({[(4-chloro-2-methylphenyl)methyl]amino}carbonyl)phenyl]-N-[(3S)-piperidin-3-yl]pyrazine-2-carboxamide], the IC50 was < 50 nM.

Consider `Cc1ccc(CNC(=O)c2cccc(-c3cnc(N)c(C(=O)N[C@H]4CCCNC4)n3)c2)c(F)c1F` [Example 858, 3-amino-6-[3-({[(2,3-difluoro-4-methylphenyl)methyl]amino}carbonyl)phenyl]-N-[(3S)-piperidin-3-yl]pyrazine-2-carboxamide], for which the IC50 is < 50 nM.

With `CS(=O)(=O)c1ccc(CNC(=O)c2cccc(-c3cnc(N)c(C(=O)N[C@H]4CCCNC4)n3)c2)cc1` [Example 859, 3-amino-6-{3-[({[4-(methylsulfonyl)phenyl]methyl}amino)carbonyl]phenyl}-N-[(3S)-piperidin-3-yl]pyrazine-2-carboxamide], the IC50 was < 50 nM.

As to `Nc1ncc(-c2cccc(C(=O)NCc3ccc4c(c3)OCCO4)c2)nc1C(=O)N[C@H]1CCCNC1` [Example 860, 3-amino-6-(3-{[(2,3-dihydro-1,4-benzodioxin-6-ylmethyl)amino]carbonyl}phenyl)-N-[(3S)-piperidin-3-yl]pyrazine-2-carboxamide], the IC50 was < 50 nM.

On to `Nc1ncc(-c2cccc(C(=O)NCc3ccc(Cl)cc3)c2)nc1C(=O)N[C@H]1CCCNC1` [Example 861, 3-amino-6-[3-({[(4-chlorophenyl)methyl]amino}carbonyl)phenyl]-N-[(3S)-piperidin-3-yl]pyrazine-2-carboxamide], for which the IC50 is < 50 nM.

For `Nc1ncc(-c2cccc(C(=O)NCc3cc(Cl)ccc3F)c2)nc1C(=O)N[C@H]1CCCNC1` [Example 862, 3-amino-6-[3-({[(5-chloro-2-fluorophenyl)methyl]amino}carbonyl)phenyl]-N-[(3S)-piperidin-3-yl]pyrazine-2-carboxamide], the IC50 is < 50 nM.

For `Nc1ncc(-c2cccc(CN[C@H]3CCc4ccccc43)c2)nc1C(=O)N[C@H]1CN2CCC1CC2` [Example 863, 3-amino-N-[(3R)-1-azabicyclo[2.2.2]oct-3-yl]-6(3-{[(1S)-2,3-dihydro-1H-inden-1-ylamino]methyl}phenyl)pyrazine-2-carboxamide], the IC50 was in the range of 50 to 1000 nM.

Take `CSc1ccc(CNC(=O)c2cccc(-c3cnc(N)c(C(=O)N[C@H]4CCCNC4)n3)c2)cc1` [Example 864, 3-amino-6-{3-[({[4-(methylthio)phenyl]methyl}amino)carbonyl]phenyl}-N-[(3S)-piperidin-3-yl]pyrazine-2-carboxamide]: the IC50 was < 50 nM.

In the case of `Nc1ncc(-c2cccc(C(=O)NCc3ccc(F)cc3F)c2)nc1-c1nc([C@H]2CCCNC2)n[nH]1` [Example 865, 3-(5-amino-6-{3-[(3S)-piperidin-3-yl]-1H-1,2,4-triazol-5-yl}pyrazin-2-yl)-N-[(2,4-difluorophenyl)methyl]benzamide], the IC50 was < 50 nM.

Take `Nc1ncc(-c2cccc(C(=O)NC(Cc3ccccc3)c3ccccc3)c2)nc1C(=O)N[C@H]1CCCNC1` (stereo partly drawn) [Example 866, 3-amino-6-(3-{[(1,2-diphenylethyl)amino]carbonyl}phenyl)-N-[(3S)-piperidin-3-yl]pyrazine-2-carboxamide]: the IC50 is < 50 nM.

Take `Nc1ncc(-c2cccc(C(=O)NCc3ccc(F)c(F)c3)c2)nc1-c1nc([C@H]2CCCNC2)n[nH]1` [Example 867, 3-(5-amino-6-{3-[(3S)-piperidin-3-yl]-1H-1,2,4-triazol-5-yl}pyrazin-2-yl)-N-[(3,4-difluorophenyl)methyl]benzamide]: the IC50 was < 50 nM.

On to `Nc1ncc(-c2cccc(C(=O)NCc3cc(F)cc(F)c3)c2)nc1C(=O)N[C@H]1CCCNC1` [Example 868, 3-amino-6-[3-({[(3,5-difluorophenyl)methyl]amino}carbonyl)phenyl]-N-[(3S)-piperidin-3-yl]pyrazine-2-carboxamide], for which the IC50 is < 50 nM.
